Reference: patent US20090054414A1, “Rufinamide for the Treatment of Post-Traumatic Stress Disorder” (SYNOSIA THERAPEUTICS, priority 2007, published 2009)

Experiments:
[1] = system: male OF-1 “intruder” mice; assay: Intruder test (social withdrawal of intruder mice); format: in vivo, mouse; conditions: 1/3/10 mg/kg oral
Protocol: Rufinamide, a Na-channel blocker and anti-epileptic agent, and carbamazepine, an anticonvulsant employed to treat bipolar disorder, were given to male OF-1 “intruder” in oral-doses of 1/3/10 mg/kg, 1 hr before the animals were confronted with an individually-housed, aggressive, male OF-1 resident mouse. […] This increase in social investigation (sociotropic effect) was accompanied by a decrease in the frequency and duration of defensive ambivalence probably through competitive inhibition. No signs of motor stimulation were detected.
The Intruder test duplicates a territorial encounter between a territory holder (aggressive male) and a subordinate “intruder” mouse. […] In this test the intruders receive the treatment whereas the residents remain untreated. (Dixon, A. K., Huber, C., Lowe, D. J. Clin. Psychiatry. 55 (9) Suppl B, 4-7 (1994)). For purposes of this study, rufinamide and carbamazepine were given orally to intruder mice 1 hr before being introduced singly to aggressive residents using doses of ⅓ and 10 mg/kg.
Over 60 ethological elements describing the social and non-social behaviour of mice based on the ethogram originally proposed by Grant and Mackintosh (Grant, E. C. Mackintosh, J. H. Behaviour 21: 246-259 (1963) ) and classified according to 9 behavioural categories (Dixon, A. K., Huber, C., Fisch, H. U. Adv. Study. Behaviour. 19: 171-204 (1990)) form the rodent ethogram as used in this test (FIG. 3).

[2] = system: male OF-1 “intruder” mice; conditions: earlier work (Dixon et al. 1994); cited from earlier work
male OF-1 mice [3] = assay: half-enclosed platform (HEP) test; format: in vivo, mouse
Source text: Rufinamide and carbamazepine were compared in the half-enclosed platform (HEP) test. The test determines how drugs affect the exploratory behaviour of a mouse placed upon a novel, half-enclosed platform and gives information as to whether a drug is a stimulant, depressant or disinhibitory as with, for example the benzodiazepines which increase exploration of the platform. It is also useful for determining duration of action and dose-findings studies. The HEP is a further development of the simple elevated platform used by Kaesermann to assess anxiolytic properties of drugs (Ref. Käsermann H. P. (1986) Psychopharmacol. 89:31-37). In this study carbamazepine and rufinamide were tested in the same dose ranges i.e. 0.32/1/3.2 and 10 mg/kg p.o. of each were given to male OF-1 mice 1 hr before testing.
The ethogram used consists of 9 elements of exploratory behaviour two of which involve static postures i.e. immobility and stretched attend posture, the latter being an ambivalent element indicative of approach-avoidance conflict. These elements are immediately spontaneous and are not induced by either training or punishment procedures. Upright postures which are posturally demanding are useful to detect muscle relaxation e.g. rearing (FIG. 10).

[4] = system: Male Rj: Wistar (Han) rats; assay: Vogel Conflict Test in the rat; format: in vivo; conditions: 64 mg/kg p.o., 60 minutes before the test; p<0.01
Protocol: Rufinamide was dispersed in 0.5% methylcellulose (MC) in distilled water. Vehicle was dispersed in 0.5% MC in distilled water. Clobazam was dispersed in 0.5% MC in distilled water. Methylcellulose (Sigma), batch n° 62K0144, white powder. Distilled water (Laboratoire Aguettant, sterile water for injectable preparation). All substances were stored in a dry, dark, controlled access area and maintained at a controlled ambient temperature (+18° C.). The vehicle suspensions were stored at +4° C.
The vehicle, test substance and reference substance were administered in a volume of 5 ml/kg body weight.
Male Rj: Wistar (Han) rats, 171-205 g body weight range were used. They were supplied by Elevage Janvier, 53940 Le Genest-Saint-Isle, France.
Animals were delivered to the laboratory at least 5 days before the experiment, during which time they were acclimatized to the laboratory conditions. They were housed in groups of 5 in macrolon cages (41×25×14 cm) on wood litter (Litalabo—SPPS, 95100 Argenteuil, France) with free access to food (Code 113-SAFE, 91360 Epinay-sur-Orge, France) and water until
Results in grouped data tables are presented as means followed by a ± sign and the standard error of the mean (s.e.m.) on the basis of 15 animals per group and as percent change from control. The statistical tests used are indicated with the method. All statistical calculations were performed using commercial software (Microsoft Excel®, GB Stat version 6.5), and verified test by test according to Porsolt & Partners Pharmacology's standardized internal procedures. All differences were considered statistically significant when the null hypothesis could be rejected at the risk α=0.05 or less.
Rats were deprived of water for 48 hours and were then placed individually into a transparent Plexiglas enclosure (15×32×34 cm) with a floor consisting of stainless steel bars (0.4 cm) spaced 1 cm apart. The back wall of the enclosure was made of opaque Plexiglass thereby concealing the observer from the experimental animal. In the centre of the opposite wall, 5 cm above the floor, a metal water spout protruded into the cage and was connected to one pole of a shock generator (Apelex: Type 011346). The other pole of the shock generator was connected to the metal grid floor.
The rat was left to explore until it found the water spout. Then, every time it drank, it received a slight electric shock (1.7 mA, 1 sec.) 2 seconds after it started lapping. The number of shocks received (punished drinkings) was counted during a 3 minute period.
15 rats were studied per group. The test was performed blind.
rufinamide was evaluated at 25, 50, 100 and 200 mg/kg, administered p.o. 60 minutes before the test, and compared with a vehicle control group.
Clobazam (64 mg/kg), administered under the same experimental conditions, was used as reference substance.
Data were analyzed by comparing treated groups with vehicle control using unpaired Student's t tests.

[5] = small scale placebo controlled study; cited from earlier work
male OF-1 mice [6] = conditions: general statement, no dose given; cited from earlier work
“intruder” rat = conditions: background statement on anxiolytic compounds; cited from earlier work

In the case of `NC(=O)N1c2ccccc2C=Cc2ccccc21` [carbamazepine], the “non-social (NS) behaviour, frequency” value ([1]; 1 hr before 6 minute encounter) is reported as “did not change”, the “social investigation (SI)” value ([1]; 1 hr before 6 minute encounter, frequency and duration) is reported as “dose-related increase” and the defensive ambivalence ([1]; 1 hr before encounter) is reported as “reduced but, because of large variation did not attain significance”. The “overall social contact (SIM): social investigation combined with mating behaviour” value ([1]; 1 hr before encounter) was “preserved the clear sociotropic action”, the static-flight elements ([1]; 1 hr before encounter) was “dose-related reduction persisted but also did not attain significance” and the “total number of ethological elements performed in the 6 minute encounter” value ([1]; 1 hr before encounter) was “did not change”. The “social withdrawal in the Intruder test” value [2] was “reverses social withdrawal”, the “exploratory activity (Sap,Go) in the open half of the platform” value (male OF-1 mice [3]; 0.32-10 mg/kg p.o., not attaining statistical significance) was “general tendency for increased exploratory activity” and the overall ethological profile (male OF-1 mice [3]; 0.32/1/3.2 and 10 mg/kg p.o., 1 hr before testing) was “No major changes in behaviour occurred”. The “elements of stationary activity” value (male OF-1 mice [3]; at 10 mg/kg p.o.) was “significant decrease” and the “time spent in forward locomotion (Go) in the enclosed half” value (male OF-1 mice [3]; at 3.2 and 10 mg/kg p.o.) was “significant shortening”.

With `CN1C(=O)CC(=O)N(c2ccccc2)c2cc(Cl)ccc21` [Clobazam] the “number of shocks received (punished drinking), change vs vehicle control” value [4] was “+64%”.

In the case of `Nc1nnc(-c2cccc(Cl)c2Cl)c(N)n1` [Lamotrigine], the “efficacy in treating post-traumatic stress disorder” value [5] is listed as “some efficacy”.

For `CN1C(=O)CN=C(c2ccccc2)c2cc(Cl)ccc21` [diazepam], the “behavioural disinhibition in the HEP test” value (male OF-1 mice [6]) is listed as “demonstrable” and the “intruder's fear and tendency to scrutinize the resident partner” value (“intruder” rat) is listed as “reduce the intruder's fear and to increase its tendency to scrutinize the resident partner”.

For `CC(N)Cc1ccccc1` (stereo not shown) [amphetamine], the “behavioural disinhibition in the HEP test” value (male OF-1 mice [6]) is listed as “not”.
